Measured values as given in patent US20040014797A1, “Pharmaceutical composition comprising metformin and a 5-phenoxyalkyl-2,4-thiazolidinedione-type derivative” (priority 2000, published 2004).

Test system: nOSTZ rat
Assay: Antidiabetic effect of the metformin and CRE16336 combination on the nOSTZ rat (glycaemia, insulinaemia, lacticaemia after 4 days of oral treatment)
Type: in vivo
Details: for Glucose / Insulin / Lactate: 4 days of oral treatment, blood from the tail 2 h after last administration, metformin 25 mg/kg and/or CRE16336 12.5 mg/kg; for Effect on the hyperglycaemia in the nOSTZ rats (in words): 4 days oral, metformin 25 mg/kg, CRE16336 12.5 mg/kg, alone or combined
Experimental: The antidiabetic effect of the metformin and CRE16336 combination was studied on the nOSTZ rat, an experimental model of non-insulin-dependent diabetes. This model is produced by intravenous injection of Streptozotocin (STZ) 100 mg/kg, on the day of birth. 38 male nOSTZ rats were used after selection based on the hyperglycaemia value after fasting for 2 h in order to homogenize the groups. […] a group treated with metformin at 25 mg/kg a group treated with CRE16336 at 12.5 mg/kg a group treated with metformin 25 mg/kg and CRE16336 12.5 mg/kg 5 male Wistar rats were incorporated into this study in order to evaluate the degree of hyperglycaemia in the diabetic animals. The products were administered orally in the morning between 8 am and 9 am, for 4 days.

Lactate [mg/dL] | SMILES | Glucose [mg/dL] | Insulin [μU/ml] | Effect on the hyperglycaemia in the nOSTZ rats (in words)
15.4 ± 1.4 | CN(C)C(=N)NC(=N)N [Metformin, 1,1-dimethylbiguanide] | 160 ± 5 | 34.1 ± 3.7 | does not modify the hyperglycaemia
13.2 ± 0.7 | N#Cc1ccc(OCCC2SC(=O)NC2=O)cc1 (centres unmarked) [CRE16336, 5-[2-(4-cyanophenoxy)ethyl]thiazolidine-2,4-dione] | 156 ± 6 | 45.2 ± 5.5 | does not modify the hyperglycaemia
